From patent publication EP4772514A1, “MACROCYCLIC COMPOUNDS, PREPARATION METHOD THEREFOR, AND USE THEREOF” (Genfleet Therapeutics (Shanghai) Inc., priority 2023, dated 2025)

These compounds were tested on p-ERK (assay: Cell p-ERK assay (HTRF, Advance ERK phospho-T202/Y204 kit) in NCI-H441 cells). Conditions: Homo sapiens, NCI-H441, 3 h, NCI-H441, human non-small cell lung cancer cell strain, KRAS G12V mutation; 3 h compound incubation.
Type: cell-based
Procedure: AsPC-1 cells were purchased from ATCC, Cat. No. CRL-1682; NCI-H441 cells were purchased from ATCC, Cat. No. HTB-174; RPMI-1640 medium was purchased from Gibco, Cat. No. 11875-093; FBS was purchased from Gibco, Cat. No. 10099-141C; penicillin/streptomycin double-antibiotic solution (PS) was purchased from Gibco, Cat. No. 15140-122; trypsin (containing EDTA) was purchased from Gibco, Cat. No. 25200-072; DMSO was purchased from VWRAMRESCO, Cat. No. 0231-500ML; 96-well cell culture plates were purchased from Corning, Cat. No. 3599; white-bottomed, opaque 96-well plates were purchased from Cisbio, Cat. No. 66PL96025; Advance ERK phospho-T202/Y204 kit was purchased from Cisbio, Cat. No. 64AERPEH; cell counter was purchased from CHEMOMETEC, model: NC-200; microplate reader was purchased from PerkinElmer, model: EnVision.
AsPC-1, a human pancreatic cancer cell strain endogenously containing a KRAS^G12D mutation, was cultured in a complete medium containing RPMI-1640 + 10% FBS + 1% PS. NCI-H441, a human non-small cell lung cancer cell strain endogenously containing a KRAS^G12V mutation, was cultured in a complete medium containing RPMI-1640 + 10% FBS + 1% PS.
The cells were digested with trypsin (containing EDTA), collected in their corresponding complete media, and counted. The density of the cell suspensions was adjusted with their corresponding complete media, and AsPC-1 cells (10000 cells/well) or NCI-H441 cells (20000 cells/well) were seeded into a 96-well cell culture plate, with the volume of the medium in each well being 80 µL. The cell culture plate was incubated in an incubator at 37 °C with 5% CO2 overnight. A series of 3.16-fold gradient dilutions of a 1000× compound stock solution were prepared with DMSO, and then diluted 200-fold with the complete medium described above to give 5× compound stock solutions. On the day after cell seeding, 20 µL of the 5× compound stock solution was added to each cell culture well. As a result, the final concentration of the compound in the cell culture well became 1×, and the DMSO content in the well was 0.1%. In addition to the compound-treated wells described above, cell-containing DMSO control wells were also set. A complete medium containing 0.5% DMSO was added at 20 µL/well. After the mixture was well mixed, the culture plate was incubated in the incubator at 37 °C with 5% CO2 for another 3 h. The medium was then removed from the culture wells, and 50 µL of cell lysis buffer (from Advance ERK phospho-T202/Y204 kit) was added to each well. The mixture was well mixed, incubated for 30 min, and then transferred to a white-bottomed, opaque 96-well assay plate at 16 µL/well, and separately, 16 µL of cell lysis buffer was added to additional wells (serving as blank wells) in the assay plate. After the transfer was completed, 4 µL of p-ERK HTRF antibody mixture (from Advance ERK phospho-T202/Y204 kit) was added to each well of the assay plate, followed by a 4-hour incubation. The HTRF signal values (RLU) were then measured using a microplate reader, and the inhibition rate of the compound against p-ERK levels was calculated as follows: IR(%) = (RLUDMSO - RLUcompound)/(RLUDMSO - RLUblank) × 100%, where RLUDMSO is the average HTRF signal value from the DMSO control well samples, RLU is the average HTRF signal value from the blank well samples, and RLUcompound is the HTRF signal value from the compound-treated well samples. Using an XLfit software, the IR(%) values were plotted against the logarithm of the compound concentrations, and the dose-response curves were fitted using the four-parameter method to calculate the IC50 values.

| SMILES | IC50 [nM] |
| --- | --- |
| CO[C@@H](C)c1ncc(C#CCN2CCS(=O)(=O)CC2)cc1-c1c2c(nn1C(C)C)/C=C/c1csc(n1)C[C@H](NC(=O)[C@H](C(C)C)N(C)C(=O)Cc1cccc3ccsc13)C(=O)N1CCC[C@H](N1)C(=O)OCC(C)(C)C2 (single isomer, unassigned) [Compound Z120] | 513 |
| CCn1nc2c(c1-c1cc(C#CCN3CCS(=O)(=O)CC3)cnc1[C@H](C)OC)CC(C)(C)COC(=O)[C@@H]1CCCN(N1)C(=O)[C@@H](NC(=O)[C@H](C(C)C)N(C)C1CCCC1)Cc1nc(cs1)/C=C/2 (atropisomer, axis not shown; (Ra)) [Compound Z58, (2S)-2-(cyclopentyl(methyl)amino)-N-((4^2Z,8^3S,2E,6S)-(Ra)-1^5-(5-(3-(1,1-dioxidothiomorpholine)prop-1-yn-1-yl)-2-((S)-1-methoxyethyl)pyridin-3-yl)-1^1-ethyl-12,12-dimethyl-7,9-dioxo-8^1,8^2,8^3,8^4,8^5,8^6-hexahydro-1^1H-10-oxa-4(4,2)-thiazola-8(1,3)-pyridazina-1(3,4)-pyrazolecyclotridec-2-en-6-yl)-3-methylbutanamide] | 55.7 |
| COC[C@H]1CCN1C(=O)N[C@H]1Cc2nc(cs2)/C=C/c2nn(C(C)C)c(-c3cc(C#CCN4CCS(=O)(=O)CC4)cnc3[C@H](C)OC)c2CC(C)(C)COC(=O)[C@@H]2CCCN(N2)C1=O [Compound Z41, (2R)-N-((4^2Z,8^3S,2E,6S)-1^5-(5-(3-(1,1-dioxidothiomorpholino)prop-1-yn-1-yl)-2-((S)-1-methoxyethyl)pyridin-3-yl)-1^1-isopropyl-12,12-dimethyl-7,9-dioxo-8^1,8^2,8^3,8^4,8^5,,8^6-hexahydro-1^1H-10-oxa-4(4,2)-thiazola-8(1,3)-pyridazina-1(3,4)-pyrrolacyclotridecaphan-2-en-6-yl)-2-(methoxymethyl)azetidine-1-carboxamide] | 356 |
| CCn1nc2c(c1-c1cc(C#CCN3CCS(=O)(=O)CC3)cnc1[C@H](C)OC)CC(C)(C)COC(=O)[C@@H]1CCCN(N1)C(=O)[C@@H](NC(=O)[C@@H](Cc1ccccc1)C(C)C)Cc1nc(cs1)/C=C/2 (atropisomer, axis not shown; (Ra)) [Compound Z127, (2S)-2-benzyl-N-((4^2Z,8^3S,2E,6S)-(Ra)-1^5-(5-(3-(1,1-dioxidothiomorpholino)prop-1-yn-1-yl)-2-((S)-1-methoxyethyl)pyridin-3-yl)-1^1-ethyl-12,12-dimethyl-7,9-dioxo-8^1,8^2,8^3,8^4,8^5,8^6-hexahydro-1^1H-10-oxa-4(4,2)-thiazola-8(1,3)-pyridazina-1(3,4)-pyrrolacyclotridecaphan-2-en-6-yl)-3-methylbutanamide] | 104 |
| CO[C@@H](C)c1ncc(C#CCN2CCS(=O)(=O)CC2)cc1-c1c2c(nn1C(C)C)/C=C/c1csc(n1)C[C@H](NC(=O)[C@H](C(C)C)N(C)c1ccc3ccccc3c1)C(=O)N1CCC[C@H](N1)C(=O)OCC(C)(C)C2 (atropisomer, axis not shown; (Ra)) [Compound Z60] | 261 |

The remaining compounds from weak to strong by IC50, led by results:

| IC50 [nM] | SMILES |
| --- | --- |
| 181 | CCn1nc2c(c1-c1cc(C#CCN3CCS(=O)(=O)CC3)cnc1[C@H](C)OC)CC(C)(C)COC(=O)[C@@H]1CCCN(N1)C(=O)[C@@H](NC(=O)[C@H](C(C)C)N(C)c1ccncc1)Cc1nc(cs1)/C=C/2 (atropisomer, axis not shown; (Ra)) [Compound Z122, (2S)-N-((4^2Z,8^3S,2E,6S)-(Ra)-1^5-(5-(3-(1,1-dioxidothiomorpholino)prop-1-yn-1-yl)-2-((S)-1-methoxyethyl)pyridin-3-yl)-1^1-ethyl-12,12-dimethyl-7,9-dioxo-8^1,8^2,8^3,8^4,8^5,8^6-hexahydro-1^1H-10-oxa-4(4,2)-thiazola-8(1,3)-pyridazina-1(3,4)-pyrazolocyclotridec-2-en-6-yl)-3-methyl-2-(methyl(pyridin-4-yl)amino)butanamide] |
| 69.9 | CO[C@@H](C)c1ncc(C#CCN2CCS(=O)(=O)CC2)cc1-c1c2c(nn1C(C)C)/C=C/c1csc(n1)C[C@H](NC(=O)[C@H](C(C)C)N(C)c1ccc(C)cc1)C(=O)N1CCC[C@H](N1)C(=O)OCC(C)(C)C2 (atropisomer, axis not shown; (Ra)) [Compound Z61, (2S)-N-((4^2Z,8^3S,2E,6S)-1^5-(Ra)-(5-(3-(1,1-dioxidothiomorpholino)prop-1-yn-1-yl)-2-((S)-1-methoxyethyl)pyridin-3-yl)-1^1-isopropyl-12,12-dimethyl-7,9-dioxo-8^1,8^2,8^3,8^4,8^5,8^6-hexahydro-1^1H-10-oxa-4(4,2)-thiazola-8(1,3)-pyridazina-1(3,4)-pyrazolocyclotridec-2-en-6-yl)-3-methyl-2-(methyl(p-tolyl)amino)butanamide] |
| 49.2 | CO[C@@H](C)c1ncc(C#CCN2CCS(=O)(=O)CC2)cc1-c1c2c(nn1C(C)C)/C=C/c1csc(n1)C[C@H](NC(=O)[C@H](C(C)C)N(C)c1cccc(C)c1)C(=O)N1CCC[C@H](N1)C(=O)OCC(C)(C)C2 (atropisomer, axis not shown; (Ra)) [Compound Z59, (2S)-N-((4^2Z,8^3S,2E,6S)-1^5-(Ra)-(5-(3-(1,1-dioxidothiomorpholino)prop-1-yn-1-y1)-2-((S)-1-methoxyethyl)pyridin-3-yl)-1^1-isopropyl-12,12-dimethyl-7,9-dioxo-8^1,8^2,8^3,8^4,8^5,8^6-hexahydro-1^1H-10-oxa-4(4,2)-thiazola-8(1,3)-pyridazina-1(3,4)-pyrazolocyclotridec-2-en-6-yl)-3-methyl-2-(methyl(m-tolyl)amino)butanamide] |
| 4.63 | CCn1nc2c(c1-c1cc(C#CCN3CCS(=O)(=O)CC3)cnc1[C@H](C)OC)CC(C)(C)COC(=O)[C@@H]1CCCN(N1)C(=O)[C@@H](NC(=O)[C@H](C(C)C)N(C)c1cccnc1)Cc1nc(cs1)/C=C/2 (atropisomer, axis not shown; (Ra)) [Compound Z123, (2S)-N-((4^2Z,8^3S,2E,6S)-(Ra)-1^5-(5-(3-(1,1-dioxidothiomorpholino)prop-1-yn-1-yl)-2-((S)-1-methoxyethyl)pyridin-3-yl)-1^1-ethyl-12,12-dimethyl-7,9-dioxo-8^1,8^2,8^3,8^4,8^5,8^6-hexahydro-1^1H-10-oxa-4(4,2)-thiazola-8(1,3)-pyridazina-1(3,4)-pyrazolocyclotridec-2-en-6-yl)-3-methyl-2-(methyl(pyridin-3-yl)amino)butanamide] |
| 2.05 | CCn1nc2c(c1-c1cc(C#CCN3CCS(=O)(=O)CC3)cnc1[C@H](C)OC)CC(C)(C)COC(=O)[C@@H]1CCCN(N1)C(=O)[C@@H](NC(=O)[C@H](C(C)C)N(C)c1ccc(F)cc1)Cc1nc(cs1)/C=C/2 (atropisomer, axis not shown; (Ra)) [Compound Z124, (2S)-N-((4^2Z,8^3S,2E,6S)-(Ra)-1^5-(5-(3-(1,1-dioxidomorpholinyl)prop-1-yn-1-yl)-2-((S)-1-methoxyethyl)pyridin-3-yl)-1^1-ethyl-12,12-dimethyl-7,9-dioxo-8^1,8^2,8^4,8^5,8^6-hexahydro-1^1H-10-oxa-4(4,2)-thiazola-8(1,3)-pyridazina-1(3,4)-pyrrolacyclotridecaphan-2-en-6-yl)-2-[(4-fluorophenyl)(methyl)amino]-3-methylbutanamide] |
